Measurements published in BindingDB's records for doi:10.1016/s0960-894x(99)00462-x (Abbott Laboratories, 1999).

Assay: Nicotinic acetylcholine receptor binding activity was determined by ability to displace [125I]alpha-BgT binding to rat brain membrane

Compound	Ki [µM]
CN1CC[C@@H](Oc2cccnc2)C1 [3-((R)-1-Methyl-pyrrolidin-3-yloxy)-pyridine]	> 10
CN1CC[C@H](Oc2cccnc2)C1 [3-((S)-1-Methyl-pyrrolidin-3-yloxy)-pyridine]	> 10
c1ncc(OC[C@@H]2CCN2)cn1 [5-((S)-1-Azetidin-2-ylmethoxy)-pyrimidine]	> 10
CN1CC[C@H]1COc1cncnc1 [5-((S)-1-Methyl-azetidin-2-ylmethoxy)-pyrimidine]	> 10
